Here are results for nine compounds from ChEMBL document CHEMBL1255213, “Bottromycin derivatives: efficient chemical modifications of the ester moiety and evaluation of anti-MRSA and anti-VRE activities” (2010).

Common to all, as to format: functional
For test [1], the system named is Staphylococcus aureus. Put plainly: Antimicrobial activity against Staphylococcus aureus FDA209P by standard serial-dilution technique.
Test [2] concerns Staphylococcus aureus. As to the kind of experiment: Antimicrobial activity against methicillin-resistant Staphylococcus aureus assessed as rate of residual activity. Further details: concentration or dose not given beside the values.
Test [3] concerns Staphylococcus aureus. Put plainly: Antimicrobial activity against Staphylococcus aureus Smith by standard serial-dilution technique.
Test [4] concerns Staphylococcus aureus. Put plainly: Antimicrobial activity against methicillin-resistant Staphylococcus aureus HH1 by standard serial-dilution technique.
In test [5] the test system is Enterococcus faecium. Put plainly: Antimicrobial activity against Enterococcus faecium NCTC 12203 by standard serial-dilution technique.
The test system of test [6] is Enterococcus faecium. As to the kind of experiment: Antimicrobial activity against Enterococcus faecium NCTC 12201 by standard serial-dilution technique.
Test [7] has as its system Staphylococcus aureus. As to the kind of experiment: Antimicrobial activity against methicillin-resistant Staphylococcus aureus 92-1191 by standard serial-dilution technique.

In brackets after ≈: the same amount, converted by molar mass.

On to `CC(C)[C@@H]1NC(=O)[C@@H]2[C@H](C)CCN2C(=O)CN/C(=N\[C@H](C(=O)N[C@H](C(=O)N[C@H](CC(=O)N2CCOCC2)c2nccs2)[C@@H](C)c2ccccc2)C(C)(C)C)[C@H](C(C)(C)C)NC1=O`, for which the MIC in the test with Staphylococcus aureus [1] came out at 16 µg/mL (≈ 18.2 µM); against Staphylococcus aureus [3], 8 µg/mL (≈ 9.11 µM); in the test on Staphylococcus aureus [4], 16 µg/mL (≈ 18.2 µM); against Enterococcus faecium [5], 4 µg/mL (≈ 4.56 µM); in the test with Enterococcus faecium [6] it was 16 µg/mL (≈ 18.2 µM); against Staphylococcus aureus [7] it was 32 µg/mL (≈ 36.4 µM). In the test with Staphylococcus aureus [2], the Activity is 100%.
Consider `COC(=O)C[C@@H](NC(=O)[C@@H](NC(=O)[C@@H](/N=C1\NCC(=O)N2CC[C@@H](C)[C@H]2C(=O)N[C@@H](C(C)C)C(=O)N[C@H]1C(C)(C)C)C(C)(C)C)[C@@H](C)c1ccccc1)c1nccs1`, for which the MIC against Staphylococcus aureus [1] turned out to be 1 µg/mL (≈ 1.21 µM); against Staphylococcus aureus [3], 1 µg/mL (≈ 1.21 µM); in the test with Staphylococcus aureus [4] it was 1 µg/mL (≈ 1.21 µM); with Enterococcus faecium [5] it was 0.5 µg/mL (≈ 0.607 µM); in the test with Enterococcus faecium [6], 1 µg/mL (≈ 1.21 µM); in the test on Staphylococcus aureus [7], 2 µg/mL (≈ 2.43 µM). In the test on Staphylococcus aureus [2], the Activity came to 0%.
With `CC(C)[C@@H]1NC(=O)[C@@H]2[C@H](C)CCN2C(=O)CN/C(=N\[C@H](C(=O)N[C@H](C(=O)N[C@H](CC(=O)O)c2nccs2)[C@@H](C)c2ccccc2)C(C)(C)C)[C@H](C(C)(C)C)NC1=O`, the MIC was determined as 64 µg/mL (≈ 79.1 µM) in the test with Staphylococcus aureus [1]; 64 µg/mL (≈ 79.1 µM) against Staphylococcus aureus [3]; 64 µg/mL (≈ 79.1 µM) against Staphylococcus aureus [4]; 32 µg/mL (≈ 39.6 µM) against Enterococcus faecium [5]; 128 µg/mL (≈ 158 µM) in the test with Enterococcus faecium [6]; 128 µg/mL (≈ 158 µM) against Staphylococcus aureus [7].
In the case of `CC(C)[C@@H]1NC(=O)[C@@H]2[C@H](C)CCN2C(=O)CN/C(=N\[C@H](C(=O)N[C@H](C(=O)N[C@H](CC(=O)NN)c2nccs2)[C@@H](C)c2ccccc2)C(C)(C)C)[C@H](C(C)(C)C)NC1=O`, the MIC was found to be 16 µg/mL (≈ 19.4 µM) in the test with Staphylococcus aureus [1]; 16 µg/mL (≈ 19.4 µM) in the test on Staphylococcus aureus [3]; 16 µg/mL (≈ 19.4 µM) against Staphylococcus aureus [4]; 4 µg/mL (≈ 4.86 µM) in the test on Enterococcus faecium [5]; 8 µg/mL (≈ 9.72 µM) with Enterococcus faecium [6]; 32 µg/mL (≈ 38.9 µM) in the test on Staphylococcus aureus [7]. Besides, in the test on Staphylococcus aureus [2], the Activity is listed as 86%.
Regarding `CC(C)[C@@H]1NC(=O)[C@@H]2[C@H](C)CCN2C(=O)CN/C(=N\[C@H](C(=O)N[C@H](C(=O)N[C@H](CC(=O)NCc2ccccc2)c2nccs2)[C@@H](C)c2ccccc2)C(C)(C)C)[C@H](C(C)(C)C)NC1=O`, the MIC amounted to 8 µg/mL (≈ 8.91 µM) with Staphylococcus aureus [1]; 8 µg/mL (≈ 8.91 µM) in the test with Staphylococcus aureus [3]; 8 µg/mL (≈ 8.91 µM) against Staphylococcus aureus [4]; 2 µg/mL (≈ 2.23 µM) with Enterococcus faecium [5]; 8 µg/mL (≈ 8.91 µM) against Enterococcus faecium [6]; 8 µg/mL (≈ 8.91 µM) in the test on Staphylococcus aureus [7]. Moreover, the Activity with Staphylococcus aureus [2] is reported as 71%.
For the compound `C#CCNC(=O)C[C@@H](NC(=O)[C@@H](NC(=O)[C@@H](/N=C1\NCC(=O)N2CC[C@@H](C)[C@H]2C(=O)N[C@@H](C(C)C)C(=O)N[C@H]1C(C)(C)C)C(C)(C)C)[C@@H](C)c1ccccc1)c1nccs1`, the MIC against Staphylococcus aureus [1] was found to be 8 µg/mL (≈ 9.46 µM); in the test on Staphylococcus aureus [3] it was 8 µg/mL (≈ 9.46 µM); in the test with Staphylococcus aureus [4] it was 8 µg/mL (≈ 9.46 µM); against Enterococcus faecium [5] it was 2 µg/mL (≈ 2.36 µM); against Enterococcus faecium [6], 4 µg/mL (≈ 4.73 µM); against Staphylococcus aureus [7], 16 µg/mL (≈ 18.9 µM). Also, the Activity in the test with Staphylococcus aureus [2] is reported as 100%.
For the compound `CC(C)[C@@H]1NC(=O)[C@@H]2[C@H](C)CCN2C(=O)CN/C(=N\[C@H](C(=O)N[C@H](C(=O)N[C@H](CC(=O)N2CCNCC2)c2nccs2)[C@@H](C)c2ccccc2)C(C)(C)C)[C@H](C(C)(C)C)NC1=O`, the MIC against Staphylococcus aureus [1] was 64 µg/mL (≈ 73 µM); in the test with Staphylococcus aureus [3], 32 µg/mL (≈ 36.5 µM); against Staphylococcus aureus [4], 64 µg/mL (≈ 73 µM); with Enterococcus faecium [5], 32 µg/mL (≈ 36.5 µM); against Enterococcus faecium [6] it was 32 µg/mL (≈ 36.5 µM); against Staphylococcus aureus [7], 128 µg/mL (≈ 146 µM).
As for `CC(=O)NC[C@H]1CN(c2ccc(N3CCOCC3)c(F)c2)C(=O)O1` [LINEZOLID], the MIC in the test on Enterococcus faecium [5] and with Enterococcus faecium [6] was 2 µg/mL (≈ 5.93 µM) throughout.
As for `CN[C@H](CC(C)C)C(=O)N[C@H]1C(=O)N[C@@H](CC(N)=O)C(=O)N[C@H]2C(=O)N[C@H]3C(=O)N[C@H](C(=O)N[C@H](C(=O)O)c4cc(O)cc(O)c4-c4cc3ccc4O)[C@H](O)c3ccc(c(Cl)c3)Oc3cc2cc(c3O[C@@H]2O[C@H](CO)[C@@H](O)[C@H](O)[C@H]2O[C@H]2C[C@](C)(N)[C@H](O)[C@H](C)O2)Oc2ccc(cc2Cl)[C@H]1O` [VANCOMYCIN], the MIC against Enterococcus faecium [5] and with Enterococcus faecium [6] was more than 128 µg/mL each time.

For orientation: MIC means the least concentration at which growth counts as inhibited.
